Laboratory results reported in ChEMBL document CHEMBL1201862, “PubChem BioAssay data set” (2004).
Active and inactive are the calls of the source. For most assays here, no stated cut-off is given here; in the data, actives have a measured IC50 and inactives only a lower limit.

Columns and labels:
[1] = biological target: Glyceraldehyde-3-phosphate dehydrogenase (Homo sapiens, UniProt P04406)
[2] = biological target: Tyrosine-protein phosphatase non-receptor type 12 (Homo sapiens, UniProt Q05209); test: SAR Selectivity Analysis of small molecule inhibitors of PEST using pCAP in a fluorescence assay. [Related pubchem assays (depositor defined):AID1779, AID1784, AID2135]; format: functional
[3] = biological target: T1, Tyrosine-protein phosphatase non-receptor type 22 (Homo sapiens, UniProt Q9Y2R2); test: SAR LYP1 Fluorescent Assay using OMFP substrate for In Vitro dose response studies - Set 3. [Related pubchem assays (depositor defined):AID1779, AID1784, AID2140, AID2686]; format: functional
T1 sequence (Q9Y2R2 whole entry): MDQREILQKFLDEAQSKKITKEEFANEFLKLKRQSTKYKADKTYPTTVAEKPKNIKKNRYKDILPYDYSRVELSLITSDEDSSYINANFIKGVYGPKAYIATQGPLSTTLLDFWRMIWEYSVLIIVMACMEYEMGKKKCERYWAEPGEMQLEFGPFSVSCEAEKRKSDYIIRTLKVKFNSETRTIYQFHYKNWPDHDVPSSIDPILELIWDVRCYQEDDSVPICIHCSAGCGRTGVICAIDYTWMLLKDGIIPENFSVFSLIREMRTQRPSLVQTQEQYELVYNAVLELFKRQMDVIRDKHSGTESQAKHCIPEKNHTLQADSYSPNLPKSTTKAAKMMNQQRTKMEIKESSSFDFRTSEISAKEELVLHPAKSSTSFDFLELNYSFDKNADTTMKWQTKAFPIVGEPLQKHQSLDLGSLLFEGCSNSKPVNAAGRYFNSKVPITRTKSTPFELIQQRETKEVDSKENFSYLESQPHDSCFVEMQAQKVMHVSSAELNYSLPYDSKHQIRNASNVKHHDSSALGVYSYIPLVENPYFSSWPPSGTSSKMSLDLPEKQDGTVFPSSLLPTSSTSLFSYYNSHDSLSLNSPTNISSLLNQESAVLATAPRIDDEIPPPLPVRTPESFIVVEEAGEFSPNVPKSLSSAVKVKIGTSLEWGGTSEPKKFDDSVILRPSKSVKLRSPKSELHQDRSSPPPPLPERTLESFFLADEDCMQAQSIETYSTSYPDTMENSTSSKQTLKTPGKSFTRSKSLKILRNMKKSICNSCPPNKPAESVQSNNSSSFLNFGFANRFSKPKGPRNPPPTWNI

[4] = biological target: T1, Tyrosine-protein phosphatase non-receptor type 22; test: inhibition of lymphoid tyrosine phosphatase LYP – biochemical, pCAP fluorogenic substrate, fluorescence, set 3, SAR follow-up (AID 449727); format: functional
Trypsin = Trypsin (Sus scrofa, UniProt P00761); test: trypsin protease activity blockade – biochemical, quenched peptide fluorescence, cherry-pick, selectivity assay for Rce1 protease inhibitor project, dose response (AID 488789)
Phosphomannomutase 2 = Phosphomannomutase 2 (Homo sapiens, UniProt O15305); test: Counter screen SAR assay for PMM2 inhibitors via a fluorescence intensity assay. [Related pubchem assays (depositor defined):AID1545, AID1574]
[5] = biological target: T2, Mannose-6-phosphate isomerase (Homo sapiens, UniProt P34949); test: phosphomannose isomerase inhibition – biochemical, fluorescence intensity, confirmation (AID 1535)
T2 sequence (P34949 whole entry): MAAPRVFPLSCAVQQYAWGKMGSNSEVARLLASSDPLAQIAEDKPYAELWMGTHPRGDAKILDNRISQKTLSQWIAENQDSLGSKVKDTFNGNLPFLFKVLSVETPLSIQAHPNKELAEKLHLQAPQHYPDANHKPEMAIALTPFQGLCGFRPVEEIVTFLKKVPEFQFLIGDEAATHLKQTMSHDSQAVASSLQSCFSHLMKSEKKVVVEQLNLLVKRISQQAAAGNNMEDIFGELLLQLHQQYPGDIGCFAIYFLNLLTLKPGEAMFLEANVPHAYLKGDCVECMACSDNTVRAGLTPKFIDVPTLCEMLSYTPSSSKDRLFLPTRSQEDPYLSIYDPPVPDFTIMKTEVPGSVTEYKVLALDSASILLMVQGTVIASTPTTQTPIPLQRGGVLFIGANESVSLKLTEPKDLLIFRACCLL

Hexokinase = biological target: T3, Hexokinase (Trypanosoma brucei, UniProt Q38C41); test: Confirmation assay for inhibitors of Trypanosoma brucei hexokinase 1-Analogue-first series. [Related pubchem assays (depositor defined):AID1430, AID1632, AID2516, AID2560, AID2579, AID2600, AID449725, AID492951]; format: functional
T3 sequence (Q38C41 whole entry): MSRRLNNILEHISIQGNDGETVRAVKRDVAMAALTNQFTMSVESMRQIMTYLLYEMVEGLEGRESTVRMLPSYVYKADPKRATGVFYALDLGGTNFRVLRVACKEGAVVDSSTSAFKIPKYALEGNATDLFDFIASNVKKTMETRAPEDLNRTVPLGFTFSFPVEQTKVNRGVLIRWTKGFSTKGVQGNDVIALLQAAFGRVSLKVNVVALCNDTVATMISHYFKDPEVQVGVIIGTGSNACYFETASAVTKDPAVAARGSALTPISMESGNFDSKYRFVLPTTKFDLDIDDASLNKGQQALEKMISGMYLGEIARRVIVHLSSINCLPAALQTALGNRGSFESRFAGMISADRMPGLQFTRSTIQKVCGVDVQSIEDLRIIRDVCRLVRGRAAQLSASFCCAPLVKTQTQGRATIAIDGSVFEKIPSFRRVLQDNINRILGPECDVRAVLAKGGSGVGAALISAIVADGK

[6] = biological target: Phosphoethanolamine/phosphocholine phosphatase (Homo sapiens, UniProt Q8TCT1); test: SAR assay for compounds that inhibit PHOSPHO1. [Related pubchem assays (depositor defined):AID1545, AID1565, AID1574]
Chain of Phosphoethanolamine/phosphocholine phosphatase (Q8TCT1 whole entry): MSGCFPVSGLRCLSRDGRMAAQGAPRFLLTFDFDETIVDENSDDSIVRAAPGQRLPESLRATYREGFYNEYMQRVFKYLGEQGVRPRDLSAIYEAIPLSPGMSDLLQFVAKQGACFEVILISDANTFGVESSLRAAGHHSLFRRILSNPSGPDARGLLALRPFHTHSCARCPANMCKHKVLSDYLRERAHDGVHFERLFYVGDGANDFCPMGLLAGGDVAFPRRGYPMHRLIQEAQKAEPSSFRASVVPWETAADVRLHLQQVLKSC

Chain of Trypsin (P00761 whole entry): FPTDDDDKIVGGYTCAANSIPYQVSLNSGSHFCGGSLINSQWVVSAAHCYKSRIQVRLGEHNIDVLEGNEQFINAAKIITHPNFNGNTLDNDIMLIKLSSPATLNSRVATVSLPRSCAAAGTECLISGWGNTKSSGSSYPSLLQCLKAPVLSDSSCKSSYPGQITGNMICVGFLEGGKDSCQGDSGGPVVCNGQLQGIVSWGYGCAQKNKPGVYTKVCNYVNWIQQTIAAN
Chain of Tyrosine-protein phosphatase non-receptor type 12 (Q05209 whole entry): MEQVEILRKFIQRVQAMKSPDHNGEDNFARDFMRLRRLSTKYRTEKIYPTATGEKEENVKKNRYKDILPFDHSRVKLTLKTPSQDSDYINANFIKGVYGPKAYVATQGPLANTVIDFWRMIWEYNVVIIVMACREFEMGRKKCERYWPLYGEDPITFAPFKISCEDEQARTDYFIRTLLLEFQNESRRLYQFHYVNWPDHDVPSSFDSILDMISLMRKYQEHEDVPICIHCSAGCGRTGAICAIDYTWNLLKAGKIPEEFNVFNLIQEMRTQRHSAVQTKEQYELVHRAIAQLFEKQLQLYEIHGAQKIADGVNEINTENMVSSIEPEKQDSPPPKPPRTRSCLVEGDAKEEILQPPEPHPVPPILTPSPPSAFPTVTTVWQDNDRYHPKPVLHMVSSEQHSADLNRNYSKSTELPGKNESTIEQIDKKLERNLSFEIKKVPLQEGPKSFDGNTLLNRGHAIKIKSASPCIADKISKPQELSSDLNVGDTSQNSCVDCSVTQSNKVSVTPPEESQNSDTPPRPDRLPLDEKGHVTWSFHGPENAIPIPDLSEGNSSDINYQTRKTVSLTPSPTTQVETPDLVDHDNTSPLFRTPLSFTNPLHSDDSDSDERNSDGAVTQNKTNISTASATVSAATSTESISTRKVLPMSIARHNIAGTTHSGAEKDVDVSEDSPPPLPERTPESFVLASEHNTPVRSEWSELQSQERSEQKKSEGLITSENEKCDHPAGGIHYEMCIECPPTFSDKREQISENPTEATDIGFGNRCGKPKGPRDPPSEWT
Chain of Glyceraldehyde-3-phosphate dehydrogenase (P04406 whole entry): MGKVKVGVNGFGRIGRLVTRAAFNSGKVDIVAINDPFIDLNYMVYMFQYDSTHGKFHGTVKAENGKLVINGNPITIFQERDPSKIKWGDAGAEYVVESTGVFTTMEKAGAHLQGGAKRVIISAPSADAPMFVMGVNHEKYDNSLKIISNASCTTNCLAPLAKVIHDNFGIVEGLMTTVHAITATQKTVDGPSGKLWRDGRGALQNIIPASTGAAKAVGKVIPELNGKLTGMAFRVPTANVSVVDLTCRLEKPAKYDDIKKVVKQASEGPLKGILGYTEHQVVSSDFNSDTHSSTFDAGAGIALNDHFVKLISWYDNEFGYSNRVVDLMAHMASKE
Chain of Phosphomannomutase 2 (O15305 whole entry): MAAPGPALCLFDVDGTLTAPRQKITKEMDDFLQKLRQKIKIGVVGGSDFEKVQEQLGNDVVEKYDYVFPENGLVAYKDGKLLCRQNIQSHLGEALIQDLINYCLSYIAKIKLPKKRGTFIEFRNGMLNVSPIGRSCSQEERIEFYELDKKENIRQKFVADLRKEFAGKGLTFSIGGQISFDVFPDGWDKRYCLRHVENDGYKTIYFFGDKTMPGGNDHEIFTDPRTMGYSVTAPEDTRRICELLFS

## O=C(O)c1ccc(-c2ccc(/C=C3\SC(=S)N(c4ccc([N+](=O)[O-])cc4)C3=O)o2)cc1
[1]
  IC50: > 100 µM (not active)
[2]
  IC50: 0.216 µM (active)
[3]
  IC50: 0.821 µM (active)
[4]
  IC50: 0.602 µM (active)

## CCn1cc(C(=O)NCCO)c(=O)c2cc(F)c(N3CCN(C)CC3)cc21
Trypsin
  AC50: 39.2 µM (active)

## O=c1c2ccc([N+](=O)[O-])cc2sn1-c1ccccc1
Phosphomannomutase 2
  IC50: > 100 µM (inactive)
[5]
  IC50: > 50 µM (inactive)
Hexokinase
  IC50: 11.6 µM (active)
[6]
  IC50: 4.23 µM (inactive)
